How the values were obtained:
Assay type in all cases: in vivo
[1] = test system: Echinochloa crus-galli (ECHCG); experiment: B2 Post-emergence herbicidal activity; set-up: key to Post-emergence herbicidal activity, ECHCG (damage score 0-5): 5=total damage to plant; 0=no damage to plant; details: post-emergence application, rate 1000 g/ha, evaluated after 13 days
Outline: (§1)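 Plants grown 8 days in a glasshouse (24/16° C day/night, 14 h light, 65% humidity) were sprayed post-emergence with active ingredient formulated in acetone/water (50:50) containing 0.5% Tween 20. Damage was scored after 13 days on a 0–5 scale (5 = total damage).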

[2] = test system: Echinochloa crus-galli (ECHCG); experiment: B1 Pre-emergence herbicidal activity; set-up: key to Pre-emergence herbicidal activity, ECHCG (damage score 0-5): 5=total damage to plant; 0=no damage to plant; details: pre-emergence application, rate 1000 g/ha, evaluated after 13 days
Outline: (§2)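 Pots of sown seeds were sprayed one day after sowing, pre-emergence, with compound in acetone/water (50:50) containing 0.5% Tween 20. Plants were grown in a glasshouse at 24/16 °C day/night, 14 h light and 65% humidity. Damage was scored after 13 days on a 0 (none) to 5 (total) scale.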

[3] = test system: Avena fatua (AVEFA); experiment: B1 Pre-emergence herbicidal activity; set-up: key: 5=total damage to plant; 0=no damage to plant; details: pre-emergence application, rate 1000 g/ha, evaluated after 13 days
Outline: as §2

[4] = test system: Triticum aestivium (TRZAW); experiment: B1 Pre-emergence herbicidal activity; set-up: key: 5=total damage to plant; 0=no damage to plant; details: pre-emergence application, rate 1000 g/ha, evaluated after 13 days
Outline: as §2

[5] = test system: Alopecurus myosuroides (ALOMY); experiment: B1 Pre-emergence herbicidal activity; set-up: key: 5=total damage to plant; 0=no damage to plant; details: pre-emergence application, rate 1000 g/ha, evaluated after 13 days
Outline: as §2

[6] = test system: Triticum aestivium (TRZAW); experiment: B2 Post-emergence herbicidal activity; set-up: key: 5=total damage to plant; 0=no damage to plant; details: post-emergence application, rate 1000 g/ha, evaluated after 13 days
Outline: as §1

[7] = test system: Alopecurus myosuroides (ALOMY); experiment: B2 Post-emergence herbicidal activity; set-up: key: 5=total damage to plant; 0=no damage to plant; details: post-emergence application, rate 1000 g/ha, evaluated after 13 days
Outline: as §1

[8] = test system: Setaria fabenri (SETFA); experiment: B2 Post-emergence herbicidal activity; set-up: key: 5=total damage to plant; 0=no damage to plant; details: post-emergence application, rate 1000 g/ha, evaluated after 13 days
Outline: as §1

[9] = test system: Lolium perenne (LOLPE); experiment: B1 Pre-emergence herbicidal activity; set-up: key to Pre-emergence herbicidal activity, LOLPE (damage score 0-5): 5=total damage to plant; 0=no damage to plant; details: pre-emergence application, rate 1000 g/ha, evaluated after 13 days
Outline: as §2

[10] = test system: Lolium perenne (LOLPE); experiment: B2 Post-emergence herbicidal activity; set-up: key to Post-emergence herbicidal activity, LOLPE (damage score 0-5): 5=total damage to plant; 0=no damage to plant; details: post-emergence application, rate 1000 g/ha, evaluated after 13 days
Outline: as §1

[11] = test system: Avena fatua (AVEFA); experiment: B2 Post-emergence herbicidal activity; details: post-emergence application, rate 1000 g/ha, evaluated after 13 days
Outline: as §1

[12] = test system: Setaria fabenr (SETFA); experiment: B1 Pre-emergence herbicidal activity; set-up: key to Pre-emergence herbicidal activity, SETFA (damage score 0-5): 5=total damage to plant; 0=no damage to plant; details: pre-emergence application, rate 1000 g/ha, evaluated after 13 days
Outline: as §2

SMILES | Post-emergence herbicidal activity, ECHCG (damage score 0-5) [1] | Pre-emergence herbicidal activity, ECHCG (damage score 0-5) [2] | Pre-emergence herbicidal activity, AVEFA (damage score 0-5) [3] | Pre-emergence herbicidal activity, TRAZW (damage score 0-5) [4] | Pre-emergence herbicidal activity, ALOMY (damage score 0-5) [5] | Post-emergence herbicidal activity, TRAZW (damage score 0-5) [6] | Post-emergence herbicidal activity, ALOMY (damage score 0-5) [7] | Post-emergence herbicidal activity, SETFA (damage score 0-5) [8] | Pre-emergence herbicidal activity, LOLPE (damage score 0-5) [9] | Post-emergence herbicidal activity, LOLPE (damage score 0-5) [10] | Post-emergence herbicidal activity, AVEFA (damage score 0-5) [11] | Pre-emergence herbicidal activity, SETFA (damage score 0-5) [12]
Cc1nc(-c2cncc(F)c2)ccc1N(C(=O)C(C)C)C(=O)C(C)C [Compound C1] | 5 | 5 | 2 | 1 | 0 | 1 | 1 | 5 | 1 | 4 | 3 | 5
Cc1nc(-c2cncnc2)ccc1NC(=O)C(C)C [Compound C2, 2-methyl-N-(2-methyl-6-pyrimidin-5-yl-3-pyridyl)propanamide] | 5 | 3 | 0 | 0 | 0 | 1 | 1 | 5 | 1 | 2 | 3 | 5
COCCN(C(=O)C(C)C)c1ccc(-c2cncc(F)c2)nc1C(F)(F)F [Compound C85] | 4 | 2 | 0 | 0 | 0 | 1 | 0 | 4 | 0 | 1 | 2 | 2
O=C(CCC1CCCC1)Nc1ccc(-c2cncc(F)c2)nc1C(F)(F)F [Compound C53] | 5 | 5 | 3 | 0 | 1 | 1 | 0 | 5 | 1 | 4 | 4 | 4
C#CCN(C(=O)C(C)C)c1ccc(-c2cncc(F)c2)nc1C(F)(F)F [Compound C61] | 4 | 3 | 1 | 0 | 0 | 0 | 1 | 4 | 0 | 2 | 2 | 5
O=C(Nc1ccc(-c2cncc(F)c2)nc1C(F)(F)F)C(Cl)Cl [Compound C26] | 5 | 5 | 2 | 0 | 0 | 1 | 0 | 5 | 1 | 4 | 4 | 5
O=C(Nc1ccc(-c2cncc(F)c2)nc1C(F)(F)F)C1CCCC1 [Compound C111] | 5 | 4 | 2 | 0 | 1 | 0 | 1 | 5 | 1 | 2 | 4 | 5
CCC(=O)N(CCC(F)F)c1ccc(-c2cncc(F)c2)nc1C(F)(F)F [Compound C62] | 5 | 3 | 2 | 0 | 0 | 1 | 1 | 5 | 1 | 2 | 4 | 4
COC(=O)CCC(=O)N(C(=O)CCC(=O)OC)c1ccc(-c2cncc(F)c2)nc1C(F)(F)F [Compound C119] | 5 | 5 | 2 | 0 | 0 | 3 | 1 | 5 | 1 | 3 | 4 | 5
CC(C)C(=O)N(C)c1ccc(-c2cncc(F)c2)nc1C(F)(F)F [Compound C4, N-[6-(5-fluoro-3-pyridyl)-2-(trifluoromethyl)-3-pyridyl]-N,2-dimethyl-propanamide] | 4 | 4 | 1 | 0 | 0 | 1 | 1 | 3 | 5 | 5 | 4 | 1
